Consider 14 molecules from ChEMBL document CHEMBL4020712, “Synthesis of new N3-substituted dihydropyrimidine derivatives as L-/T- type calcium channel blockers” (Eur J Med Chem, 2017).

Molecules are shown by their SMILES. Calls of active or inactive are those of the source. No cut-off for these calls is given here.

The target of data set [1] is Cav1.2 (voltage-dependent L-type calcium channel subunit alpha-1C) (Rattus norvegicus, UniProt P22002). Put plainly: Inhibition of rat Cav1.2 expressed in human tsA-201 cells co-expressing Cavbeta1b/Cavalpha2delta1 assessed as tonic block at 10 uM at holding potential of -90 mV by whole cell patch clamp method relative to control. It counts as cell-based. For orientation: In patch-clamp work, channel activity is measured electrically.
Cav1.2 (voltage-dependent L-type calcium channel subunit alpha-1C), sequence (P22002 whole entry): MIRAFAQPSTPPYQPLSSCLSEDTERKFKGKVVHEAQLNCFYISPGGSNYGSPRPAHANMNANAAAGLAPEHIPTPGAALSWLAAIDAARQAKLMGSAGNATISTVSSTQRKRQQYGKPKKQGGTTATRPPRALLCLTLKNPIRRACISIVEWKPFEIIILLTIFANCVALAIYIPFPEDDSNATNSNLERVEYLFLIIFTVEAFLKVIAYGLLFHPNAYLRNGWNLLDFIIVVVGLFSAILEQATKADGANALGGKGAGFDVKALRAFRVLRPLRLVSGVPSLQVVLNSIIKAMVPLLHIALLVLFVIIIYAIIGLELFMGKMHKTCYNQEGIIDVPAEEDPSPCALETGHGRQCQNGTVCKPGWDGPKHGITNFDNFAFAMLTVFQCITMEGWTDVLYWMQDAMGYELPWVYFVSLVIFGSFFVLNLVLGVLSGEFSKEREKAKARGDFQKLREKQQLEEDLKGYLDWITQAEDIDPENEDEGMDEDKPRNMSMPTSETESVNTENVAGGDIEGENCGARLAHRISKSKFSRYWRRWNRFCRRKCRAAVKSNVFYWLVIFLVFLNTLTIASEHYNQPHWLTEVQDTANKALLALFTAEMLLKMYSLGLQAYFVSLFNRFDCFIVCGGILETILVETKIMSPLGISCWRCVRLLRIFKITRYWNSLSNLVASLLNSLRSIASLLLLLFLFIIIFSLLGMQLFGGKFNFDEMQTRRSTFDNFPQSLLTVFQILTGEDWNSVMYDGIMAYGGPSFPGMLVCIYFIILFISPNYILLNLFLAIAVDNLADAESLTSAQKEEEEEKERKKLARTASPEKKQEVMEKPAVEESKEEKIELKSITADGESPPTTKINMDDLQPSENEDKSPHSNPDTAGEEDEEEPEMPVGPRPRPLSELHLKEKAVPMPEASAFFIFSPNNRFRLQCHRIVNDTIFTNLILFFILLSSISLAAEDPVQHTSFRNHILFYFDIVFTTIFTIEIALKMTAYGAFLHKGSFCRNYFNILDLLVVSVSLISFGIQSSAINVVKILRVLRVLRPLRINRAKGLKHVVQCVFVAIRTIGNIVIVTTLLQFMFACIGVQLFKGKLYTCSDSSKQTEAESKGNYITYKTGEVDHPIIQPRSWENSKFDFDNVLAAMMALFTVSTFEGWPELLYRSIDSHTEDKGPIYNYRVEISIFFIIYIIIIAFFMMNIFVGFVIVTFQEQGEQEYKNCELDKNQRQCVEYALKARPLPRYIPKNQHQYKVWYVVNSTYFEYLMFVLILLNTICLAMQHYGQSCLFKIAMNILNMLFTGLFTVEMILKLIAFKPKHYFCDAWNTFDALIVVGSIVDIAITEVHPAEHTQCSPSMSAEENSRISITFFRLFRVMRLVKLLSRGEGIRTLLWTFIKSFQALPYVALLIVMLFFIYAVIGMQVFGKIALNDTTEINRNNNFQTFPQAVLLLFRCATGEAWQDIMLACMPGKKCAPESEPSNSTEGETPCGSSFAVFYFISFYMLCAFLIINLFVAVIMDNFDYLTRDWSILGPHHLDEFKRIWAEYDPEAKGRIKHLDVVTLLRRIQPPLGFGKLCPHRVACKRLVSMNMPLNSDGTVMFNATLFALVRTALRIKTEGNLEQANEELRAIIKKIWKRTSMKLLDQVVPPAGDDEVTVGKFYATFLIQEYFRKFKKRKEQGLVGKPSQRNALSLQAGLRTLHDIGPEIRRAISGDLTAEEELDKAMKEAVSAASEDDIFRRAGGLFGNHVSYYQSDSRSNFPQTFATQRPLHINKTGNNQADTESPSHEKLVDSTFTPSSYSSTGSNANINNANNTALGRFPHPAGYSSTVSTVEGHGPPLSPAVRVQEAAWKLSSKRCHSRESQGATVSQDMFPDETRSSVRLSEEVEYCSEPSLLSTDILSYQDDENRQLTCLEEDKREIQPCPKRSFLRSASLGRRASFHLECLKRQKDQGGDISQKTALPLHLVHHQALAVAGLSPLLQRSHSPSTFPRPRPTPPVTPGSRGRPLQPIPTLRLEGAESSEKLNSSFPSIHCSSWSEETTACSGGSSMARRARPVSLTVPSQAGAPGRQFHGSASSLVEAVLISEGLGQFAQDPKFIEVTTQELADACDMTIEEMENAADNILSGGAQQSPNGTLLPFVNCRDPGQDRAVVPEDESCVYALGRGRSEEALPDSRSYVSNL

Data set [2] addresses Voltage-dependent T-type calcium channel subunit alpha-1H (Homo sapiens) (UniProt O95180). Put plainly: Inhibition of human Cav3.2 alpha1 expressed in human tsA-201 cells assessed as tonic block at 10 uM at holding potential of -110 mV by whole cell patch clamp method. It counts as cell-based.

Voltage-dependent T-type calcium channel subunit alpha-1H (Homo sapiens), sequence (O95180 whole entry): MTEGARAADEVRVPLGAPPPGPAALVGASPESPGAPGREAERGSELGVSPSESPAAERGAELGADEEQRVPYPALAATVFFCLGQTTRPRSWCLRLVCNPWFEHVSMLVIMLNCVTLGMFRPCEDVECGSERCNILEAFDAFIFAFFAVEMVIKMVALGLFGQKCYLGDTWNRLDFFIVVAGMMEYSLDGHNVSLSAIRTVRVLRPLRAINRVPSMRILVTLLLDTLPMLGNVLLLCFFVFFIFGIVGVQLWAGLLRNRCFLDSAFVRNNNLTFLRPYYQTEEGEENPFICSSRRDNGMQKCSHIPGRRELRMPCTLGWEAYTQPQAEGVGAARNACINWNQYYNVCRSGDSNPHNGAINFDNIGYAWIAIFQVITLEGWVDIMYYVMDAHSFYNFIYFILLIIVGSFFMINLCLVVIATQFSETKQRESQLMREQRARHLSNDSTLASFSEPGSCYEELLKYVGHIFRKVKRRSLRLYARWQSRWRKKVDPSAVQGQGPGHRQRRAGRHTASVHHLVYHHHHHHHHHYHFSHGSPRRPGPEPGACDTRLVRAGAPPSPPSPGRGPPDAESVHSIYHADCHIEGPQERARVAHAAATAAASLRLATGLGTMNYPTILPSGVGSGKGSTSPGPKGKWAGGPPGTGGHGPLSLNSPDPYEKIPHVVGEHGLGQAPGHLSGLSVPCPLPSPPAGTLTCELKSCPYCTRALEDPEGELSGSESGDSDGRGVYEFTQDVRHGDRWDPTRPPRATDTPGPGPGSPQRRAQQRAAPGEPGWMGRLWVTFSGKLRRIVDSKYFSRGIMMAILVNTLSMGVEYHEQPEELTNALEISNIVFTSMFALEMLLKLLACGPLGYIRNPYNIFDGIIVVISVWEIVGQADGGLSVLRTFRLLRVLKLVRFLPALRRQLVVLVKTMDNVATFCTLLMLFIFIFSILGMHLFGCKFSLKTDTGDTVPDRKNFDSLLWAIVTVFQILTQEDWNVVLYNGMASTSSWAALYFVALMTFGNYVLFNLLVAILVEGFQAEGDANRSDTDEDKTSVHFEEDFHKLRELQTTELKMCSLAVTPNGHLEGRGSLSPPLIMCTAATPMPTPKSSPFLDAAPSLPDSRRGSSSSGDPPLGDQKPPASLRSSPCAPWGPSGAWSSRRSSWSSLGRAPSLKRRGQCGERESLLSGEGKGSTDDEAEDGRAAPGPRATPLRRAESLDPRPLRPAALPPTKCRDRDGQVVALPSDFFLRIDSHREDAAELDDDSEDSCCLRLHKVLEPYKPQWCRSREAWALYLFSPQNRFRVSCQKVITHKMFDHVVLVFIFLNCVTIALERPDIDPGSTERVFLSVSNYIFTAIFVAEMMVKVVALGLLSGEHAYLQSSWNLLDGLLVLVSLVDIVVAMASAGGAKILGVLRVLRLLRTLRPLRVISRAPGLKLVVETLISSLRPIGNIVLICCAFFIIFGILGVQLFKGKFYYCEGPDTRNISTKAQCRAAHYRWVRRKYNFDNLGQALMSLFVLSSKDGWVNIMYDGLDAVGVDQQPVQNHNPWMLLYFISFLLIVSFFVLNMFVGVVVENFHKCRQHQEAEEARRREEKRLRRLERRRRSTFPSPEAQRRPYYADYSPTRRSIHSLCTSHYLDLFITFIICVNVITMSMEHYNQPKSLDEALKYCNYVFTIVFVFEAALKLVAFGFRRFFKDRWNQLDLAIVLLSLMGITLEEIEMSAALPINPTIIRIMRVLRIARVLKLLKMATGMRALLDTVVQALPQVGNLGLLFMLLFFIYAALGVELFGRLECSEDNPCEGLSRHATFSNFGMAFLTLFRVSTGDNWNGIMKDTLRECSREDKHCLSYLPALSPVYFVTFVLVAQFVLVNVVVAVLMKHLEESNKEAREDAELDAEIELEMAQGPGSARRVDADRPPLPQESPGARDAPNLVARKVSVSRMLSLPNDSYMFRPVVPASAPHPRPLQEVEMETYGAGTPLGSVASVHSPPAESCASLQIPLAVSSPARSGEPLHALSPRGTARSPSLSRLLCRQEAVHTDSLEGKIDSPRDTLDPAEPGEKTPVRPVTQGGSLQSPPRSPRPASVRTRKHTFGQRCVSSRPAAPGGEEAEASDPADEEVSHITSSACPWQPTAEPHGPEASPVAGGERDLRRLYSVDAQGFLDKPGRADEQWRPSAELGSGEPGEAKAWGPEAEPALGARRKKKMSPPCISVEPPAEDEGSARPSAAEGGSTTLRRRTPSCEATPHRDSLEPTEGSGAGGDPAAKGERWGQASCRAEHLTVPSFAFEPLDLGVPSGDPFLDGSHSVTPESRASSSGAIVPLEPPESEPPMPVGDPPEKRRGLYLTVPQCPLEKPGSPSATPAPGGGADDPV

In the case of `CCOC(=O)C1=C(C)NC(=O)N(CCC(=O)N(C)Cc2ccccc2)C1c1cccc([N+](=O)[O-])c1` (stereo not drawn), the inhibition at 10 µM in data set [1] was below 50%. Moreover, the inhibition entry in data set [2] is “inactive”.
`CCOC(=O)C1=C(C)NC(=O)N(CCC(=O)O)C1c1cccc([N+](=O)[O-])c1` (stereo not drawn): in data set [1], the inhibition at 10 µM is below 50%. In addition, the inhibition entry in data set [2] is “inactive”.
In the same order, the values of `CCOC(=O)C1=C(C)NC(=O)N(CCC(=O)OCCOC)C1c1cccc([N+](=O)[O-])c1` (stereo not drawn) are 50% and “Active”.
In the same order, the values of `CCOC(=O)C1=C(C)NC(=O)N(CCC(=O)OCc2cn(CC(=O)c3ccccc3)nn2)C1c1cccc([N+](=O)[O-])c1` (stereo not drawn) are below 50% and “Active”.
As for `CCOC(=O)CCN1C(=O)NC(C)=C(C(=O)OCC)C1c1cccc([N+](=O)[O-])c1` (stereo not drawn), the inhibition at 10 µM in data set [1] is above 75%. Further, the inhibition entry in data set [2] was “Active”.
The like results for `CCOC(=O)C1=C(C)NC(=O)N(CCC(N)=O)C1c1cccc([N+](=O)[O-])c1` (stereo not drawn) were, in that order, below 50% and “inactive”.
The like results for `CCOC(=O)C1=C(C)NC(=O)N(CCC#N)C1c1cccc([N+](=O)[O-])c1` (stereo not drawn) were, in that order, below 50% and “inactive”.
In the same order, the values of `CCOC(=O)C1=C(C)NC(=O)N(CCC(=O)NCc2ccccc2)C1c1cccc([N+](=O)[O-])c1` (stereo not drawn) are below 50% and “inactive”.
In the case of `CCOC(=O)C1=C(C)NC(=O)N(CCC(=O)OC(C)C)C1c1cccc([N+](=O)[O-])c1` (stereo not drawn), the inhibition at 10 µM in data set [1] was below 50%. Besides, in data set [2], the inhibition entry is “inactive”.
The like results for `CCOC(=O)C1=C(C)NC(=O)N(CCC(=O)NN)C1c1cccc([N+](=O)[O-])c1` (stereo not drawn) were, in that order, below 50% and “inactive”.
Regarding `CCOC(=O)C1=C(C)NC(=O)N(CCC(=O)NCC(c2ccccc2)c2ccccc2)C1c1cccc([N+](=O)[O-])c1` (stereo not drawn), the inhibition at 10 µM in data set [1] was below 50%. Moreover, in data set [2], the inhibition result was “inactive”.
For the molecule `C#CCOC(=O)CCN1C(=O)NC(C)=C(C(=O)OCC)C1c1cccc([N+](=O)[O-])c1` (stereo not drawn), in data set [1], the inhibition at 10 µM was found to be 50%. The inhibition result in data set [2] is “Active”.
In the same order, the values of `CCOC(=O)C1=C(C)NC(=O)N(CCC(=O)OC)C1c1cccc([N+](=O)[O-])c1` (stereo not drawn) are below 50% and “inactive”.
In the same order, the values of `CCOC(=O)C1=C(C)NC(=O)N(CCC(=O)OCc2cn(Cc3ccccc3)nn2)C1c1cccc([N+](=O)[O-])c1` (stereo not drawn) are below 50% and “Active”.

As usually defined, the inhibition is how much of the control response was suppressed.
